From ChEMBL document CHEMBL4417631, “Oral peptide inhibitors of interleukin-23 receptor and their use to treat inflammatory bowel diseases” (2017) come the findings set out here.

In the assay the target is T1, Interleukin-23 receptor (Homo sapiens, UniProt Q5VWK5).
T1 sequence (Q5VWK5 whole entry): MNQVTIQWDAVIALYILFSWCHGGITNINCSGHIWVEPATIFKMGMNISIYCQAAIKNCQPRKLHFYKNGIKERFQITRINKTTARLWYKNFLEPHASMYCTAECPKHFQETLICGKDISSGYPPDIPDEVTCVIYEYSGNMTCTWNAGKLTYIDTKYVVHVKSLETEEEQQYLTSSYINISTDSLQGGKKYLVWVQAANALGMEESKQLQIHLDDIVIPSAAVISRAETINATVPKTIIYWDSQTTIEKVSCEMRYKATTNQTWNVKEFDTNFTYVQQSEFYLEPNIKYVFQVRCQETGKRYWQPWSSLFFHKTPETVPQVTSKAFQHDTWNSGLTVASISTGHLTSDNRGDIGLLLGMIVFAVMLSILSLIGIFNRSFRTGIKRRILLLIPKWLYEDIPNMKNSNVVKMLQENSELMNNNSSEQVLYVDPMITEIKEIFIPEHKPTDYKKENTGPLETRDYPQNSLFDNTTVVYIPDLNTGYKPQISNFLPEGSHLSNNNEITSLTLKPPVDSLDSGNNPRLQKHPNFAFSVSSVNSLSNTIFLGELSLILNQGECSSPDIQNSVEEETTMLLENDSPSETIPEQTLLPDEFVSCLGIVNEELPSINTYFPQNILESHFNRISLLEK
Kind of assay: Inhibition of interleukin-23 binding to human interleukin-23 receptor incubated for 2 hrs by competitive binding ELISA.

The structures appear in SMILES notation. pIC50: −log10 of the molar value. Where a SMILES comes first, the peptide text is derived from it. Bounds are passed on as bounds.

The pIC50 is −log10 of the IC50, conventionally taken in molar units. `CC(=O)N[C@@H](CS)C(=O)N[C@@H](C)C(=O)N[C@@H](CC(=O)O)C(=O)N[C@@H](Cc1c[nH]c2ccccc12)C(=O)N[C@H](C(=O)N[C@@H](CS)C(=O)N[C@@H](Cc1ccc(O)cc1)C(=O)N[C@@H](Cc1cccc2ccccc12)C(=O)N[C@H](C(=O)N[C@H](C(=O)N[C@@H](Cc1ccccc1)C(=O)NCC(N)=O)[C@@H](C)O)C(C)C)C(C)C`: the pIC50 is 6.00 to 6.30.
`CC(C)[C@H](NC(=O)[C@H](Cc1cnc[nH]1)NC(=O)[C@H](Cc1c[nH]c2ccccc12)NC(=O)[C@H](Cc1ccc(O)cc1)NC(=O)[C@H](CS)NC(=O)[C@H](CCC(=O)O)NC(=O)[C@H](Cc1c[nH]c2ccccc12)NC(=O)[C@H](CC(N)=O)NC(=O)CNC(=O)[C@@H](N)CS)C(=O)N[C@@H](Cc1ccc(O)cc1)C(=O)NCC(N)=O` (H-CGNWECYWHVYG-NH2) showed a pIC50 of less than 6.00.
The compound `CC(=O)N[C@@H](CS)C(=O)N[C@@H](CCC(N)=O)C(=O)N[C@H](C(=O)N[C@@H](Cc1c[nH]c2ccccc12)C(=O)N[C@@H](CCC(N)=O)C(=O)N[C@@H](CS)C(=O)N[C@@H](Cc1ccc(O)cc1)C(=O)N[C@@](C)(Cc1c[nH]c2ccccc12)C(=O)N[C@@H](CCCNC(N)=O)C(=O)N[C@@H](CCC(C)C)C(=O)N[C@@H](CC(N)=O)C(=O)NCC(=O)NCCC(=O)N[C@H](CCCCN)C(N)=O)[C@@H](C)O` had a pIC50 of 5.22.
Take `CC(C)[C@H](NC(=O)[C@H](Cc1cnc[nH]1)NC(=O)[C@H](Cc1c[nH]c2ccccc12)NC(=O)[C@H](Cc1ccc(O)cc1)NC(=O)[C@H](CS)NC(=O)[C@@H](NC(=O)[C@H](Cc1c[nH]c2ccccc12)NC(=O)[C@@H](NC(=O)[C@H](CCCNC(=N)N)NC(=O)[C@@H](N)CS)[C@@H](C)O)[C@@H](C)O)C(=O)N[C@@H](Cc1ccc(O)cc1)C(=O)NCC(N)=O` (H-CRTWTCYWHVYG-NH2): the pIC50 is 6.00 to 6.30.
`CCCCCCCCCCCCCCCC(=O)NCCCC[C@H](NC(=O)[C@H](Cc1c[nH]c2ccccc12)NC(=O)[C@H](Cc1ccc(O)cc1)NC(=O)[C@H](CS)NC(=O)[C@H](CCC(N)=O)NC(=O)[C@H](Cc1c[nH]c2ccccc12)NC(=O)[C@@H](NC(=O)[C@H](CCC(N)=O)NC(=O)[C@H](CS)NC(C)=O)[C@@H](C)O)C(=O)N[C@@H](CCC(=O)O)C(=O)N[C@@H](CC(N)=O)C(=O)NCC(N)=O` gave a negative logarithm of the IC50 (pIC50) of 5.31.
Take `CC(=O)N[C@@H](CS)C(=O)N[C@@H](CCC(N)=O)C(=O)N[C@H](C(=O)N[C@@H](Cc1c[nH]c2ccccc12)C(=O)N[C@@H](CCC(N)=O)C(=O)N[C@@H](CS)C(=O)N[C@@H](Cc1ccc(O)cc1)C(=O)N[C@@H](Cc1c[nH]c2ccccc12)C(=O)N[C@@H](CCCNC(=N)N)C(=O)N[C@@H](CCC(=O)O)C(=O)N[C@@H](CC(N)=O)C(=O)NCC(N)=O)[C@@H](C)O` (Ac-CQTWQCYWRENG-NH2): the negative logarithm of the IC50 (pIC50) was greater than 6.30.
The value for `CC(=O)N[C@@H](CS)C(=O)N[C@@H](C)C(=O)N[C@@H](CC(=O)O)C(=O)N[C@@H](Cc1c[nH]c2ccccc12)C(=O)N[C@H](C(=O)N[C@@H](CS)C(=O)N[C@@H](Cc1ccc(O)cc1)C(=O)N[C@@H](Cc1c[nH]c2ccccc12)C(=O)N[C@@H](Cc1cnc[nH]1)C(=O)N[C@@H](CC(N)=O)C(=O)N[C@@H](Cc1cnc[nH]1)C(=O)N[C@@H](CO)C(=O)N[C@@H](CCC(=O)O)C(=O)NCC(=O)N[C@@H](CO)C(=O)NCC(N)=O)C(C)C` (Ac-CADWVCYWHNHSEGSG-NH2) was 6.00 to 6.30; that for `CC(=O)N[C@@H](CS)C(=O)N[C@@H](C)C(=O)N[C@@H](CC(=O)O)C(=O)N[C@@H](Cc1c[nH]c2ccccc12)C(=O)N[C@H](C(=O)N[C@@H](CS)C(=O)N[C@@H](Cc1ccc(O)cc1)C(=O)N[C@@H](Cc1c[nH]c2ccccc12)C(=O)N[C@@H](Cc1cnc[nH]1)C(=O)N[C@H](C(=O)N[C@@H](Cc1ccccc1)C(=O)NCC(=O)N1CC[C@H]1C(=O)N[C@H](CCCCN)C(=O)O)[C@@H](C)O)C(C)C` was greater than 6.30.
